We go through 14 compounds from US7718673B2, “Isonipecotamides for the treatment of integrin-mediated disorders” (Ortho-McNeil Pharmaceutical, Inc., priority 1999, dated 2010).

Structures are written as SMILES. Where two headings read alike, the source gives them in different places.

The target of data set [1] is T1, Human αvβ3 (Homo sapiens, UniProt P05106+P06756).
T1 construct: purchased Chemicon International Inc., Temecula, Calif
Put plainly: In vitro solid phase purified αvβ3 binding assay (vitronectin/αvβ3). As to the method:
In Vitro Solid Phase Purified αvβ3 Binding Assay
(§1) The vitronectin/αvβ3 binding assay methods were derived from Mehta et al. (Biochem J. 1998, 330, 861). Human αvβ3 (Chemicon International Inc., Temecula, Calif.), at a concentration of 1 μg/ml dissolved in Tris buffer (20 mM Tris, 1 mM CaCl2, […], 10 μM MnCl2, 150 mM NaCl), was immobilized on Immulon 96 well plates (Dynex Technologies, Chantilly, Va.) overnight at 4° C. Plates were washed and treated with blocking buffer (3% BSA in Tris buffer) for 2 h at 37° C. Plates were then rinsed 2 times with Tris buffer containing 0.3% BSA and 0.2% Tween20 (polyoxyethylenesorbitan monolaurate). Five minutes prior to the addition of 5 nM vitronectin (Sigma, St. Louis, Mo.), synthesized compounds were added to wells in duplicate. Each plate included c-RGDfV as an internal control. Following a 3 hour incubation at 37° C., plates were washed 5 times in assay buffer. An anti-human vitronectin IgG rabbit polyclonal antibody (Calbiochem, San Diego, Calif.) was added (1:2000) and plates were incubated for 1 hour at room temperature. VectaStain ABC peroxidase kit reagents (Vector Laboratories, Burlingame, Calif.) employing a biotin labeled anti-rabbit IgG, were utilized for detection of bound antibody. Plates were read at 490 nm on a Molecular Devices (Sunnyvale, Calif.) microplate reader.

Data set [2] addresses RGD-affinity purified GPIIb/IIIa (Homo sapiens, UniProt P05106+P08514). In words: In vitro solid phase purified GPIIb/IIIa binding assay (biotinylated fibrinogen). The note with it: fibrinogen binding to immobilized GPIIb/IIIa; read-out: IIb/IIIa IC50. As to the method: In Vitro Solid Phase Purified GP IIB/IIIA Binding Assay
The plate was covered and incubated overnight at 4° C. The GPIIb/IIIa solution was discarded and 150 μl of 5% BSA was added and incubated at RT for 1-3 h. The plate was washed extensively with modified Tyrodes buffer. Biotinylated fibrinogen (25 μl/well) at 2× final concentration was added to the wells that contain the test compounds (25 μl/well). The plate was covered and incubated at RT for 2-4 h. Twenty minutes prior to incubation completion, one drop of Reagent A (VectaStain ABC Horse Radish Peroxidase kit, Vector Laboratories, Inc.) and one drop Reagent B were added with mixing to 5 mL modified Tyrodes buffer mix and let stand. The ligand solution was discarded and the plate washed (5×200 μl/well) with modified Tyrodes buffer. Vecta Stain HRP-Biotin-Avidin reagent (50 μl/well, as prepared above) was added and incubated at RT for 15 min. The Vecta Stain solution was discarded and the wells washed (5×200 μl/well) with modified Tyrodes buffer. Developing buffer (10 mL of 50 mM citrate/phosphate buffer @ pH 5.3, 6 mg o-phenylenediamine, 6 μl 30% H2O2; 50 μl/well) was added and incubated at RT for 3-5 min, and then 2 NH2SO4 (50 μl/well) was added. The absorbance was read at 490 nm.

Data set [3] addresses T2, human purified αvβ5 (Homo sapiens, UniProt P06756+P18084).
T2 construct: purchased Chemicon International, Inc
In words: In vitro solid phase purified αvβ5 binding assay (vitronectin/αvβ5). The note with it: for inhibition at 5 µM: read-out: αvβ5 Percent inhibition at 5 μM; for IC50: vitronectin binding to immobilized αvβ5. As to the method: as §1
In Vitro Solid Phase Purified αvβ5 Binding Assay
The vitronectin/αvβ5 binding assay method was performed in the same manner as the vitronectin/αvβ3 binding assay (EXAMPLE 64) immobilizing with 1 μg/ml of human purified αvβ5 (Chemicon International, Inc.) on to Immulon 96 well plates (Dynex Technologies) instead of αvβ3. All other aspects of the assay including buffers, reagents, and incubation times remain unchanged.

The mark [4] stands for this setting: vitronectin binding to immobilized αvβ3, read-out: αvβ3 IC50.

T1 sequence (P06756 31-889 limits assumed): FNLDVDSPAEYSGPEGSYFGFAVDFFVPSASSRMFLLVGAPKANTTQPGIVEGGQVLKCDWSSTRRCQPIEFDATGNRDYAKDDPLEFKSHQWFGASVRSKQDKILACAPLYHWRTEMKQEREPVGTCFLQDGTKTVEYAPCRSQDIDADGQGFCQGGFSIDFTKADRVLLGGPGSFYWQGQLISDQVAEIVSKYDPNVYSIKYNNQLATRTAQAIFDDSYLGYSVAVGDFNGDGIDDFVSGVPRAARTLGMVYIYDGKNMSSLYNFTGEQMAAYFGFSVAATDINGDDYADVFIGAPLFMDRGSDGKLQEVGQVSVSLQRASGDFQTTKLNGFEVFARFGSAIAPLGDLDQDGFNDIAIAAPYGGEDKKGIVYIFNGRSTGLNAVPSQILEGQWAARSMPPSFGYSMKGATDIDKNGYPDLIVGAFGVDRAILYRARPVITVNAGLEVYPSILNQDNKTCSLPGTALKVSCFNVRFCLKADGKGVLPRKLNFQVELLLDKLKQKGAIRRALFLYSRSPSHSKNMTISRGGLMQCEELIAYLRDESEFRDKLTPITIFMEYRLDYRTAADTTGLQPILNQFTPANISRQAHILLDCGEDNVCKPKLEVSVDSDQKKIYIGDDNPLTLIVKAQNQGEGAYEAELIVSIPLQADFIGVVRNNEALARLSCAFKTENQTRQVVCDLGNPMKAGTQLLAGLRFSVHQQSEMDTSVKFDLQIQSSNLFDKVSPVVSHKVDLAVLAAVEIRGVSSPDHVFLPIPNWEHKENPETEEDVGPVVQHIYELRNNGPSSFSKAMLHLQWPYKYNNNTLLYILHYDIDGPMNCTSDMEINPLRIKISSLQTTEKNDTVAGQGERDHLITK
T1 sequence (P06756 891-1048 partner limits assumed): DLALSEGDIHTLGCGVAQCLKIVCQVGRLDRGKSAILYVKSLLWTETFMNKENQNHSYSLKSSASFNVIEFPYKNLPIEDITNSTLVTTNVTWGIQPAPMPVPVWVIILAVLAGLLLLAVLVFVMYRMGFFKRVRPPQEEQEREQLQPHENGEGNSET
T1 sequence (P05106 27-788): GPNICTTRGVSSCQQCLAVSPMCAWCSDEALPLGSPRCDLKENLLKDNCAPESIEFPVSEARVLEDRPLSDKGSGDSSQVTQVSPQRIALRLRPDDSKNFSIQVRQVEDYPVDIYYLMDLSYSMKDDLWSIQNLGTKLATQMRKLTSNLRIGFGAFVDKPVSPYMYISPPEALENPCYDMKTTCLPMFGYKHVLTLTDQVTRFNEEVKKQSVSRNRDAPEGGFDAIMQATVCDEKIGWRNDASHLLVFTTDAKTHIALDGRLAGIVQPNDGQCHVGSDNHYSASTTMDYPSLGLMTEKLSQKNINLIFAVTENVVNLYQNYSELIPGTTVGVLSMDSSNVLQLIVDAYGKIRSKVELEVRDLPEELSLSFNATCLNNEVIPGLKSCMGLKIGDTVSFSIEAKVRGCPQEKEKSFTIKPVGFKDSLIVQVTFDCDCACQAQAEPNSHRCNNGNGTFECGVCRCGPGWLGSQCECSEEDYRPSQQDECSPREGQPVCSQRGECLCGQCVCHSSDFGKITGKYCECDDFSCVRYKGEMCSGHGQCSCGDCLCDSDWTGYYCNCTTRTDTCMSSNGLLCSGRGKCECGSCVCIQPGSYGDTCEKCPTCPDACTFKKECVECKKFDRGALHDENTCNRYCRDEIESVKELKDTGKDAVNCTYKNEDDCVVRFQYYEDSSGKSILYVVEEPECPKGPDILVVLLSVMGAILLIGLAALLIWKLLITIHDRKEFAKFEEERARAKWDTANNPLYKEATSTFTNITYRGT
T2 sequence (P06756 31-889 limits assumed): as the sequence (P06756 31-889 limits assumed) above
T2 sequence (P06756 891-1048 partner limits assumed): as the sequence (P06756 891-1048 partner limits assumed) above
T2 sequence (P18084 24-799): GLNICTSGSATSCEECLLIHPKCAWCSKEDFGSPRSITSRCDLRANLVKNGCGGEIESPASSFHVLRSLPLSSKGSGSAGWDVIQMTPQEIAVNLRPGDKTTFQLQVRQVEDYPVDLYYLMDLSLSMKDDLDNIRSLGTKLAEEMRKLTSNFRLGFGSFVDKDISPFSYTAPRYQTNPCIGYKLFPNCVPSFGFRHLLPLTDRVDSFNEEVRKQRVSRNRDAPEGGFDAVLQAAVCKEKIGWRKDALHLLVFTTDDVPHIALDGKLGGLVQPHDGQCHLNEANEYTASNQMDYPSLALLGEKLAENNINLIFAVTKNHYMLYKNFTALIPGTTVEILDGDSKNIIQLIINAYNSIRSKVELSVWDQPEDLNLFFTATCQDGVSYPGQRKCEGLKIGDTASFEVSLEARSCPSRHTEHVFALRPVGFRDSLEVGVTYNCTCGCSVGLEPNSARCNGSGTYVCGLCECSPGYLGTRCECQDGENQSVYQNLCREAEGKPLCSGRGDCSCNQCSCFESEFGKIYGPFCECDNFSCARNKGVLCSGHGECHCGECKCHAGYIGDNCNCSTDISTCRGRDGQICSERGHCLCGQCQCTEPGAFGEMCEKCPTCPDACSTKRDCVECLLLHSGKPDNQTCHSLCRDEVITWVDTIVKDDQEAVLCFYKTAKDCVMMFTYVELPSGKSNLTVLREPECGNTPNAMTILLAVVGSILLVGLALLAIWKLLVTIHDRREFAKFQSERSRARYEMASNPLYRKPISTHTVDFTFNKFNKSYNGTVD
Sequence of RGD-affinity purified GPIIb/IIIa (P08514 32-887 limits assumed): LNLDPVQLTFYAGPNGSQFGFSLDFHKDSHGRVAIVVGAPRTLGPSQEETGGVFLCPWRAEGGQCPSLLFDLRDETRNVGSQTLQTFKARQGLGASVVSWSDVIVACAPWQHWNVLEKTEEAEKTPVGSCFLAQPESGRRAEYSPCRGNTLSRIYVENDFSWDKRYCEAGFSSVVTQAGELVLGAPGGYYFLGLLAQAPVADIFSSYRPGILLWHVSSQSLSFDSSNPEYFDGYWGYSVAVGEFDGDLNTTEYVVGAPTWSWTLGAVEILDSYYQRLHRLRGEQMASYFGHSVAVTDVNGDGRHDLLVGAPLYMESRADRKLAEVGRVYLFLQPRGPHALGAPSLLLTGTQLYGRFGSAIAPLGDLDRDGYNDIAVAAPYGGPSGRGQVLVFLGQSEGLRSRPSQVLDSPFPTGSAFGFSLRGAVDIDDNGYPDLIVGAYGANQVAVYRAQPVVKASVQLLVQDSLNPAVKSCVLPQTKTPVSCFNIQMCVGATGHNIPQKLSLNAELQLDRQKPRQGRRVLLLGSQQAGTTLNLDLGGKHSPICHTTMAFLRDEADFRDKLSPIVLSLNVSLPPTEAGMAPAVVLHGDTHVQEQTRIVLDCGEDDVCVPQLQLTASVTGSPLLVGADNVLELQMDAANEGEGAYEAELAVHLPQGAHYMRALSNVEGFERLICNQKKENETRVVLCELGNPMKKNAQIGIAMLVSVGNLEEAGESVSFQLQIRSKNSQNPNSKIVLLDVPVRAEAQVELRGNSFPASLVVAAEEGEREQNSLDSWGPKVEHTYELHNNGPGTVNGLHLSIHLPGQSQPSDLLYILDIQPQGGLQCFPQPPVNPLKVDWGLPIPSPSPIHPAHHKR
Sequence of RGD-affinity purified GPIIb/IIIa (P08514 891-1039 partner limits assumed): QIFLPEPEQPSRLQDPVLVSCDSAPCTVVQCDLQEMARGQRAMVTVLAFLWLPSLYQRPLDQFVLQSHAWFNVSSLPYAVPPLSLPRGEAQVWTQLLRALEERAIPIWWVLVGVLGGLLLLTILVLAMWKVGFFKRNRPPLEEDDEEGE
Sequence of RGD-affinity purified GPIIb/IIIa (P05106 27-788): as the sequence (P05106 27-788) above

One may read the inhibition as the drop in the measured response relative to a control, in per cent. On to `CCN(CC)C(=O)COC(=O)CC(NC(=O)C1CCN(C(=O)CCCNC2=NCCN2C(=O)OC(C)(C)C)CC1)c1cnc2ccccc2c1` (stereo not drawn) [Compound 45], for which the values for the IC50 in data set [1] (setting [4]) and in data set [2] were 3700 nM and 14000 nM, respectively. The inhibition at 5 µM in data set [3] is 40%.
Regarding `COC(=O)[C@H](CNC(=O)C1CCN(C(=O)C(C)CNC2=NCCN2)CC1)NC(=O)OCc1ccccc1` (stereo partly drawn) [Compound 51], the IC50 in data set [1] (setting [4]) turned out to be 270 nM; in data set [2] it was 290 nM; in data set [3] it was 2000 nM.
For orientation: melting point means the temperature, or range, at which the solid turns liquid. In turn, `O=C(O)C[C@H](NC(=O)C1CCN(C(=O)CCCNc2ccccn2)CC1)c1cnc2ccccc2c1` [Compound 6, β-[[[1-[1-oxo-4-(2-pyridinylamino)butyl]-4-piperidinyl]carbonyl]amino]-, (β^3S)-3-quinolinepropanoic acid] came in with a melting point of 87 to 90 °C. Also, in data set [1] (setting [4]), the IC50 was 4 nM. Also, the IC50 in data set [2] came to 460 nM.
Turning to `O=C(N[C@@H](CNC(=O)C1CCN(C(=O)CCCNC2=NCCN2)CC1)C(=O)O)OCc1ccccc1` [Compound 2, 3-[[[1-[4-[(4,5-dihydro-1H-imidazol-2-yl)amino]-1-oxobutyl]-4-piperidinyl]carbonyl]amino]-N-[(phenylmethoxy)carbonyl]-L-alanine], the IC50 was 5.8 nM in data set [1] (setting [4]), 8.9 nM in data set [2] and 21 nM in data set [3].
The like results for `C=CC(CCC(=O)N1CCC(C(=O)NC[C@H](NC(=O)OCc2ccccc2)C(=O)O)CC1)NC1=NCCN1` (stereo partly drawn) [Compound 49] were, in that order, 39 nM, 12 nM and 210 nM.
Take `CC(CNC1=NCCN1)C(=O)N1CCC(C(=O)NC[C@H](NC(=O)OCc2ccccc2)C(=O)O)CC1` (stereo partly drawn) [Compound 16, 3-[[[1-[3-[(4,5-dihydro-1H-imidazol-2-yl)amino]-2-methyl-1-oxopropyl]-4-piperidinyl]carbonyl]amino]-N-[(phenylmethoxy)carbonyl]-L-alanine]: the IC50 in data set [1] (setting [4]) was found to be 19 nM; in data set [2] it was 18 nM; in data set [3], 38 nM.
For `CC(CNC1=NCCN1)C(=O)N1CCC(C(=O)N[C@@H](CC(=O)O)c2cccnc2)CC1` (stereo partly drawn) [Compound 52], in that order: 250 nM, 2700 nM and 760 nM.
The like results for `O=C(N[C@@H](CNC(=O)C1CCN(C(=O)CCONC2=NCCN2)CC1)C(=O)O)OCc1ccccc1` [Compound 60] were, in that order, 27 nM, 190 nM and 86 nM.
Consider `COC(=O)C[C@H](NC(=O)C1CCN(C(=O)CCCNC2=NCCN2)CC1)c1cnc2ccccc2c1` [Compound 44], for which the IC50 in data set [1] (setting [4]) was determined as 28 nM; in data set [2], 360 nM; in data set [3] it was 2900 nM.
As to `COc1ccc(C(CC(=O)O)NC(=O)C2CCN(C(=O)CCCNC3=NCCN3)CC2)cc1OC` (stereo not drawn) [Compound 34], the figures for the IC50 in data set [1] (setting [4]), in data set [2] and in data set [3] were 29 nM, 1500 nM and greater than 5000 nM, respectively.
As to `O=C(O)C[C@H](NC(=O)C1CCN(C(=O)CCCNC2=NCCN2)CC1)c1cnc2ccccc2c1` [Compound 1, β-[[[1-[4-[(4,5-dihydro-1H-imidazol-2-yl)amino]-1-oxobutyl]-4-piperidinyl]carbonyl]amino]-, (β^3S)-3-quinolinepropanoic acid], the IC50 in data set [1] was 3.7 nM; in data set [2] it was 30 nM; in data set [3] it was 25 nM.
As to `C=CC(N)CCC(=O)N1CCC(C(=O)NC[C@H](NC(=O)OCc2ccccc2)C(=O)O)CC1` (stereo partly drawn) [Compound 50, 3-[[[1-(4-amino-1-oxo-5-hexenyl)-4-piperidinyl]carbonyl]amino]-N-[(phenylmethoxy)carbonyl]-L-alanine], the IC50 in data set [1] (setting [4]) came out at 3900 nM; in data set [2], 7.4 nM. In addition, the inhibition at 5 µM in data set [3] was 38%.
With `N=C(N)NOCCC(=O)N1CCC(C(=O)NC[C@H](NC(=O)OCc2ccccc2)C(=O)O)CC1` [Compound 58], the IC50 turned out to be 40 nM in data set [1] (setting [4]), 260 nM in data set [2] and 71 nM in data set [3].
Regarding `CCN(CC)C(=O)COC(=O)CC(NC(=O)C1CCN(C(=O)CCCNC2=NCCN2)CC1)c1cnc2ccccc2c1` (stereo not drawn) [Compound 46], the IC50 is 150 nM in data set [1] (setting [4]), 1600 nM in data set [2] and greater than 5000 nM in data set [3].
